Data on 18 molecules can be found in patent US10501473B2, “Fused heterocyclic ring compounds and method of treating retinal disease using same” (THE INDUSTRY & ACADEMIC COOPERATION IN CHUNGNAM NATIONAL …, priority 2014, dated 2019).

Each structure is given as a SMILES string. “And” between values parts separate entries of the source, which are not always exact repeats. Equal entries are not always repeated.

In experiment [1] the test system is RGC-5 (rat ganglion cell). As to the kind of experiment: Retinal nerve protection under oxygen-glucose deprivation (OGD), LDH assay. Type of experiment: cell-based. Particulars: RGC-5, OGD 15 hours, compound 20 μM, DMSO control = 100%. The method, boiled down: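 RGC-5 cells switched to glucose-free DMEM with compound (20 μM) or 0.1% DMSO and held 15 h at 37° C under anaerobic gas (10% H2, 5% CO2, 85% N2). Cell death from released LDH (formazan, 490 nm), scaled with OGD control as 100% and normal-medium cells as 0%; triplicate wells, experiments in triplicate.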

For experiment [2], the target named is T1, RIPK1 (receptor-interacting serine/threonine-protein kinase 1) (Homo sapiens (Human), UniProt Q13546). As to the kind of experiment: RIPK1 inhibitory activity, autophosphorylation of immuno-precipitated RIPK1 with [32P]γ-ATP. Type of experiment: biochemical. Particulars: compound 100 μM; remaining RIPK1 phosphorylation. The method, boiled down: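 RIPK1 overexpressed in HEK293, immunoprecipitated, preincubated with compound 15 min at 24 °C in HEPES pH 7.6 kinase buffer with Mg2+/Mn2+. Autophosphorylation run 30 min at 30 °C with 100 μM ATP plus [32P]γ-ATP, resolved by SDS-PAGE and quantified by phosphorimaging.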
T1 sequence (Q13546 whole entry, species assumed): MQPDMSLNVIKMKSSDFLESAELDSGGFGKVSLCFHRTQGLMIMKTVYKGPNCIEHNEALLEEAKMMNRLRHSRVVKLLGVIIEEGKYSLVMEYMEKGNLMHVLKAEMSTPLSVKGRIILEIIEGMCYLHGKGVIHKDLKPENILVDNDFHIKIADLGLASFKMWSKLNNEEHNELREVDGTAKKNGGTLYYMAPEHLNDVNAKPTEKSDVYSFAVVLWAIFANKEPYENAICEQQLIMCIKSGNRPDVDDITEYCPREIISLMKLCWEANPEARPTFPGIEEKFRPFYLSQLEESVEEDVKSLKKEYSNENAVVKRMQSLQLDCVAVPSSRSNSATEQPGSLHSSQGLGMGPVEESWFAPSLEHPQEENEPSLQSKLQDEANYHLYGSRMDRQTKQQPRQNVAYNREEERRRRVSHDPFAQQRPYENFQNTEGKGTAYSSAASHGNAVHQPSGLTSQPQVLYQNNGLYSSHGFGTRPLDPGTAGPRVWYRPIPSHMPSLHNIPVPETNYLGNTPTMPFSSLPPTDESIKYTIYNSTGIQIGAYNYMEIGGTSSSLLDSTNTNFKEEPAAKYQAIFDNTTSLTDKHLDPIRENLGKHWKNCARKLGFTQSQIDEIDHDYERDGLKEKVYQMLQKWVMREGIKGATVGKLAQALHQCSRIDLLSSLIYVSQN

In experiment [3] the target is T1, RIPK1 (receptor-interacting serine/threonine-protein kinase 1). As to the kind of experiment: IC50 to RIPK1, immuno-precipitated enzyme with [32P]γ-ATP. The conditions noted are these: 10-0.05 μM, 100 μM ATP. It counts as biochemical. Here is the method:
RIPK1 enzyme immuno-precipitated in HEK293 (Human Embryonic Kidney 293) cell lysate was used as a kinase. The experiment was performed according to the method described in Cell. 12; 137(6):1112-23(2009).
RIPK1 protein was over-expressed in HEK293 cell line, to which lysis buffer (50 mM Tris-Cl [pH 8.0], 150 mM NaCl, 1 mM EDTA, 1% NP-40, 0.4 mM phenylmethylsulfonyl fluoride (PMSF)) was added for cell lysis. Centrifugation was performed at 13,000 rpm for 10 minutes to separate the supernatant. RIPK1 monoclonal antibody (610459, BD Bioscience) and A/G agarose beads (sc-2003, Santa Cruz Biotechnology) were added thereto, followed by immuno-precipitation in a 4° C. rotator for 12 hours.
The compounds of examples of the invention were diluted at the different concentrations of 10 μM˜0.05 μM (10, 5, 1, 0.5, 0.1, 0.05 uM) and mixed with the immuno-precipitated RIPK1 enzyme, followed by reaction in a 24° C. constant-temperature water bath for 15 minutes. Additional reaction was induced for 30 minutes at 30° C. after 100 μM of ATP and 10 μCi[^32P] γ-ATP were added thereto. The reaction mixture was washed with buffer once, to which protein loading buffer was added, followed by heating at 100° C. for 3 minutes. The reaction mixture was then loaded on 8% SDS-PAGE gel. Radioactive image of the phosphorylated RIPK1 was detected with FLA-7000 (GE healthcare). The image Quant TL program was used for the quantification. Based on the results, IC50 of the compound was calculated by using sigmaplot 10.0 program.

The subject of experiment [4] is RGC-5 (rat ganglion cell-5). As to the kind of experiment: Retinal neuron protection under necroptosis inducing (TCZ; TNFα+cycloheximide+zVAD) condition, LDH assay. It counts as cell-based. Particulars: RGC-5, TCZ 15 hours, compound 20 μM, DMSO control = 100%. As for the experimental part: The following experiment was performed to evaluate the retinal neuron protection effect of the compounds of the invention under necroptosis inducing condition.
The retinal ganglion cell line RGC-5 (rat ganglion cell-5) was cultured in DMEM (Dulbecco's modified Eagle's medium) supplemented with 10% FBS (fetal bovine serum) and 1% penicillin/streptomycin. The cells were distributed in a 96-well plate at the density of 8×10^3 cells/well, followed by culture in a 37° C., CO2 incubator for 12 hours. The medium supplemented with TNFα (10 ng/ml), cycloheximide (10 μg/ml), and zVAD (10 μM) (TCZ) was treated with DMSO (0.1%) alone (control) or with the compounds of the invention (20 μM), followed by additional culture in a 37° C., CO2 incubator for 15 hours to induce cell death.
The level of cell death was measured by LDH (lactate dehydrogenase, Roche) assay. The level of the control LDH under TCZ condition was regarded as 100%, and the level of LDH in the cell group cultured in normal medium (10% FBS, DMEM) for the same time was used for the measurement of the relative rate of cell death. The compounds of examples of the invention were treated to wells, each compound for three wells, and then each experiment was performed in triplicate.

For experiment [5], the system named is dry macular degeneration rat model. In words: Retinal cell protection by instillation, sodium iodate rat model, H&E staining. It counts as in vivo. Particulars: SI ip 50 mg/kg, eye drops 50 μl twice a day, FIG. 2. As for the experimental part:
From 3 days before the administration of sodium iodate (SI) to the 8-week-old dry macular degeneration rat model, the compound of the invention was instillated twice a day (50 μl/each eye drop instillation) and SI (ip, 50 mg/kg) was administered once. Additionally, the compound was instillated twice a day for 7 days. 7 days later, the eyeballs were extracted, followed by H&E staining to investigate retinal cell protection effect (n=3, 6 eyes). FIG. 1 is a schematic diagram illustrating the construction of the dry macular degeneration rat model and the eye drop instillation of the compounds of the invention.
The eyeballs were extracted from the dry macular degeneration rat model constructed by the same manner as described in FIG. 1, followed by histostaining.
To measure the survival rate (%) of retinal pigment epithelial cells, the eyeballs extracted from the experimental rats were fixed in 4% glutaraldehyde solution for 4 hours and embedded in paraffin. Tissue sections were prepared in 5 μm thickness, followed by H&E (Hematoxylin and Eosin) staining. Photomicrographs were taken of 2-3 different areas within the RPE (retinal pigment epithelium) layer on 100× optical microscope (Leica), and the number of stained cells was counted. The number of RPE cells in the normal rat group was regarded as 100%, based on which the survival rate was calculated.

Another experiment deals with retina of rats. The conditions noted are these: retinal detachment; cited from earlier work.

In general, IC50 refers to the concentration needed to halve the response being measured. Low readings indicate inhibition by little substance, high ones a need for much substance. On to `O=C(c1cc2c(-c3ccc(F)cc3)ccnc2s1)N1CCOCC1` [Example 4, (4-(4-fluorophenyl)thieno[2,3-b]pyridine-2-yl)(morpholino)methanone], for which the “Death of retinal nerve cell (%)” value in experiment [1] worked out at 57.8 ± 8.9%. In experiment [2], the activity at 100 µM turned out to be 3 ± 1.4%. In experiment [3], half-maximal inhibition (IC50) required 1120 nM.
On to `O=C(c1cc2c(-c3ccsc3)cccc2s1)N1CCOCC1` [Example 76, morpholino(4-(thiophene-3-yl)benzo[b]thiophene-2-yl)methanone], for which the activity at 100 µM in experiment [2] is 1.5 ± 0.7%. The molecule further showed an IC50 in experiment [3] of 61.2 nM.
On to `O=C(c1cc2c(-c3ccc(F)cc3)cccc2s1)N1CCCOCC1` [Example 52, (4-(4-fluorophenyl)benzo[b]thiophene-2-yl) (1,4-oxazepane-4-yl)methanone], for which the “Death of retinal nerve cell (%)” value in experiment [1] came to 52.8 ± 4.4%; in experiment [4] it was 80.8 ± 2.8%. This molecule also had an activity at 100 µM in experiment [2] of 5.5 ± 4.9%. In experiment [3], this molecule came in with an IC50 of 8170 nM.
Turning to `O=C(c1cc2c(-c3ccoc3)cccc2s1)N1CCOCC1` [Example 75, (4-(furan-3-yl)benzo[b]thiophene-2-yl)(morpholino)methanone], the “Death of retinal nerve cell (%)” value in experiment [1] stood at 41.7 ± 7.0%. The molecule further gave an activity at 100 µM in experiment [2] of 3.5 ± 3.5%. This molecule showed an IC50 in experiment [3] of 73.4 nM.
As for `O=C(c1cc2c(-c3cccs3)cccc2s1)N1CCOCC1` [Example 74, morpholino(4-(thiophene-2-yl)benzo[b]thiophene-2-yl)methanone], the “Death of retinal nerve cell (%)” value in experiment [1] is 51.4 ± 10.3%. Also, the activity at 100 µM in experiment [2] came out at 4%. Further, in experiment [3], the midpoint of inhibition, the IC50, lay at 65.6 nM.
For `O=C(c1cc2c(-c3ccc(F)cc3)cccc2s1)N1CCSCC1` [Example 51, (4-(4-fluorophenyl)benzo[b]thiophene-2-yl)(thiomorpholino)methanone] the same measures were 44.7 ± 6.3%, 2.5 ± 0.7% and 217 nM.
In the case of `CN1C(=O)NC(Cc2c[nH]c3c(Cl)cccc23)C1=O` (centres unmarked) [Comparative Example 2, 5-((7-chloro-1H-indole-3-yl)methyl)-3-methylimidazolidine-2,4-dione, reference compound], the “retina degeneration by histostaining” value in experiment [5] is on record as “retina degeneration was not observed”. Also, the “Death of retinal nerve cell (%)” value in experiment [1] was 73.5% and 73.5 ± 10.3%.
Consider `CN1C(=O)C(Cc2c[nH]c3ccccc23)NC1=S` (centres unmarked) [Comparative Example 1, 5-((1H-indole-3-yl)methyl)-3-methyl-2-thioxothioxoimidazolidine-4-one, reference compound], for which, in experiment [5], the “retina degeneration by histostaining” value is on record as “retina degeneration was not observed”. The “Death of retinal nerve cell (%)” value in experiment [1] was 89.5% and 89.5 ± 10.5%. The molecule also came in with an IC50 in experiment [3] of 95.5 nM. Further, in the experiment with retina of rats, the “phosphorylation of RIPK1 in the retina” value is listed as “phosphorylation was reduced” and the photoreceptor degeneration entry is on record as “photoreceptor degeneration was also protected”.
`O=C(c1cc2c(-c3ccc(F)cc3F)cccc2s1)N1CCOCC1` [Example 63, (4-(2,4-difluorophenyl)benzo[b]thiophene-2-yl)(morpholino)methanone]: the “Death of retinal nerve cell (%)” value in experiment [1] stood at 48.3 ± 13.7%. The same molecule gave an activity at 100 µM in experiment [2] of 1.5 ± 0.7%. In addition, in experiment [3], the IC50 came to 230 nM.
For `O=C(c1cc2cccc(Br)c2s1)N1CCOCC1` [Example 29, (7-bromobenzo[b]thiophene-2-yl)(morpholino)methanone], the figures for the “Death of retinal nerve cell (%)” value in experiment [1] and in experiment [4] were 51.4 ± 10.9% and 78.4 ± 6.5%, respectively. Further, the activity at 100 µM in experiment [2] was determined as 82.5 ± 24.7%.
Turning to `O=C(c1cc2c(-c3cccc(F)c3)cccc2s1)N1CCOCC1` [Example 36, (4-(3-fluorophenyl)benzo[b]thiophene-2-yl)(morpholino)methanone], the “Death of retinal nerve cell (%)” value in experiment [1] was determined as 58.0 ± 3.8%. Moreover, the activity at 100 µM in experiment [2] was 4 ± 2.8%. The molecule also gave an IC50 in experiment [3] of 17.7 nM.
With `O=C(c1cc2c(-c3ccc(F)cc3)cccc2s1)N1CCCC1` [Example 35, (4-(4-fluorophenyl)benzo[b]thiophene-2-yl)(pyrrolidine-1-yl)methanone], the “Death of retinal nerve cell (%)” value in experiment [1] worked out at 90.0 ± 3.3%; in experiment [4], 89.2 ± 8.2%. For the same molecule, the activity at 100 µM in experiment [2] was found to be 3.5 ± 2.1%. In experiment [3], this molecule had an IC50 of 360 nM.
As for `COc1ccc2oc(C(=O)N3CCOCC3)cc2c1` [Example 26, (5-methoxybenzofuran-2-yl)(morpholino)methanone], the “Death of retinal nerve cell (%)” value is listed as 48.6 ± 6.5% in experiment [1] and 75.9 ± 15.1% in experiment [4]. Further, in experiment [2], the activity at 100 µM is 81.4 ± 29.3%.
Consider `O=C(c1cc2c(-c3ccccc3F)cccc2s1)N1CCOCC1` [Example 30, (4-(2-fluorophenyl)benzo[b]thiophene-2-yl)(morpholino)methanone], for which the “Death of retinal nerve cell (%)” value in experiment [1] was 51.0 ± 5.9%. Further, in experiment [2], the activity at 100 µM is 0.4 ± 0.1%. The IC50 in experiment [3] turned out to be 102 nM.
For `Nc1ccc2sc(C(=O)N3CCOCC3)cc2c1` [Example 28, (5-aminobenzo[b]thiophene-2-yl)(morpholino)methanone], the “Death of retinal nerve cell (%)” value is 60.0 ± 8.2% in experiment [1] and 84.3 ± 1.7% in experiment [4]. The activity at 100 µM in experiment [2] was found to be 73 ± 38.2%.
Take `COc1ccc2[nH]c(C(=O)N3CCOCC3)nc2c1` [Example 24, (5-methoxy-1H-benzo[d]imidazole-2-yl)(morpholino)methanone]: the “Death of retinal nerve cell (%)” value in experiment [1] is 76.4 ± 13.4%; in experiment [4], 66.6 ± 9.9%. Also, the activity at 100 µM in experiment [2] is 52 ± 17.1%.
For the molecule `Cc1ccc2cc(C(=O)N3CCOCC3)sc2c1C` [Example 18, (6,7-dimethylbenzo[b]thiophene-2-yl)(morpholino)methanone], the figures for the “Death of retinal nerve cell (%)” value in experiment [1] and in experiment [4] were 37.0 ± 1.7% and 74.6 ± 8.2%, respectively. In experiment [2], this molecule came in with an activity at 100 µM of 76.5 ± 12%.
In the case of `O=C(c1cc2c(-c3ccc(F)cc3)cccc2s1)N1CCCCC1` [Example 47, (4-(4-fluorophenyl)benzo[b]thiophene-2-yl) (piperidine-1-yl)methanone], the “Death of retinal nerve cell (%)” value in experiment [1] is reported as 59.1 ± 1.6%; in experiment [4] it was 89.1 ± 1.2%. The same molecule had an activity at 100 µM in experiment [2] of 20 ± 14.1%.
